Values of other authors, collected in patent publication US20040197429A1, “Selective COX-2 inhibition from plant extracts” (Pharmacia Corporation, priority 2000, published 2004).

Tested on: COX-1 and COX-2
Settings: background

CC(=O)Oc1ccccc1C(=O)O [aspirin]
effectiveness inactivating COX-1 as opposed to COX-2: 10 to 100 times
